Here are results for 17 compounds from ChEMBL document CHEMBL5214889, “Therapeutic progression of quinazolines as targeted chemotherapeutic agents” (Eur J Med Chem, 2021).

For orientation: IC50 means the concentration needed to halve the response being measured. As usually defined, the EC50 is the concentration giving half of the maximal effect. A word on the ED50: it is the dose at which the effect has come halfway, by size or by number of responders.

Molecules are shown by their SMILES.

In data set [1] the test system is HepG2. Nature of the data set: Cytotoxicity against human HepG2 cells assessed as cell growth inhibition incubated for 72 hrs by MTT assay. As to conditions: HepG2, 72 h. The data set is classed as functional, cell-based.
Data set [2] concerns K562. Nature of the data set: Cytotoxicity against human K562 cells assessed as cell growth inhibition incubated for 72 hrs by MTT assay. The data set is classed as functional, cell-based. As to conditions: K562, 72 h.
The next data set has as its system KB. Nature of the data set: Cytotoxicity against human KB cells assessed as cell growth inhibition incubated for 72 hrs by MTT assay. Format: functional, cell-based. (In general: Formazan colour is commonly taken as a measure of viable cells.)
Another data set has as its system HCT-8. Nature of the data set: Cytotoxicity against human HCT-8 cells assessed as cell growth inhibition incubated for 72 hrs by MTT assay. Format: functional, cell-based. As to conditions: HCT-8, 72 h.
The next data set deals with MDA-MB-231. The data set is described as follows: Cytotoxicity against human MDA-MB-231 cells assessed as cell growth inhibition incubated for 72 hrs by MTT assay. The data set is classed as functional, cell-based. As to conditions: MDA-MB-231, 72 h.
A further data set has as its target Tubulin. Nature of the data set: Inhibition of tubulin polymerization (unknown origin) incubated for 30 mins in presence of GTP by spectrophotometric analysis. Format: protein-complex assay, Homo sapiens.
In data set [3] the target is Epidermal growth factor receptor (Homo sapiens, UniProt P00533). The data set is described as follows: Inhibition of EGFR (unknown origin).
A short description of data set [4]: Inhibition of PDE2 (unknown origin). On the set-up: species or system Homo sapiens.
Data set [5] is described as follows: Cytotoxicity against rat C6 cells assessed as reduction in cell viability incubated for 48 hrs by MTT assay. The data set is classed as toxicity, cell-based.
Another data set concerns MOLM-13. The data set is described as follows: Cytotoxicity against human MOLM-13 cells assessed as cell growth inhibition incubated for 72 hrs by MTS assay. As to conditions: MOLM-13, 72 h. Format: functional, cell-based.
The test system of another data set is MV4-11. The data set is described as follows: Cytotoxicity against human MV4-11 cells assessed as cell growth inhibition incubated for 72 hrs by MTS assay. Format: functional, cell-based. As to conditions: MV4-11, 72 h.
Data set [6] in a line: Inhibition of COX (unknown origin). On the set-up: species or system Homo sapiens.
The test system of data set [7] is HepG2. The data set is described as follows: Cytotoxicity against human HepG2 cells assessed as growth inhibition by MTT assay. The data set is classed as functional, cell-based.
Data set [8] in a line: Inhibition of PI3K (unknown origin) by ADP-Glo assay. On the set-up: species or system Homo sapiens. (ADP-Glo turns the ADP formed in a reaction into a luminescent signal.)
In data set [9] the target is Sterol 14-alpha demethylase (Trypanosoma cruzi (strain CL Brener), UniProt Q7Z1V1). Nature of the data set: Inhibition of Trypanosoma cruzi Sterol 14-alpha demethylase.
Chain of Sterol 14-alpha demethylase (Q7Z1V1 whole entry): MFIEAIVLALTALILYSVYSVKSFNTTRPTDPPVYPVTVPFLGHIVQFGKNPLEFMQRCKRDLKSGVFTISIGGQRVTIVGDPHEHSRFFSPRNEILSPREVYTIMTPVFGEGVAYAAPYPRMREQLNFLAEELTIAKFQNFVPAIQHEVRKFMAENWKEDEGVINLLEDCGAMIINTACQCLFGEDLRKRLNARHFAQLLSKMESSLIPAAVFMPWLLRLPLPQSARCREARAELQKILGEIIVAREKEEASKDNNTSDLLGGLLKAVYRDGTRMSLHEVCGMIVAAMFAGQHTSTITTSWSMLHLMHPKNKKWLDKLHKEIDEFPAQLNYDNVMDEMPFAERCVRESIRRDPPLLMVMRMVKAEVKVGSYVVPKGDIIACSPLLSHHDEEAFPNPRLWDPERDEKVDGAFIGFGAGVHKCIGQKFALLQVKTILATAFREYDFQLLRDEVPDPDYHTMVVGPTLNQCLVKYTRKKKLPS
The target in the next data set is T1, Proline--tRNA ligase (Plasmodium falciparum (isolate 3D7), UniProt Q8I5R7).
T1 sequence (Q8I5R7 whole entry): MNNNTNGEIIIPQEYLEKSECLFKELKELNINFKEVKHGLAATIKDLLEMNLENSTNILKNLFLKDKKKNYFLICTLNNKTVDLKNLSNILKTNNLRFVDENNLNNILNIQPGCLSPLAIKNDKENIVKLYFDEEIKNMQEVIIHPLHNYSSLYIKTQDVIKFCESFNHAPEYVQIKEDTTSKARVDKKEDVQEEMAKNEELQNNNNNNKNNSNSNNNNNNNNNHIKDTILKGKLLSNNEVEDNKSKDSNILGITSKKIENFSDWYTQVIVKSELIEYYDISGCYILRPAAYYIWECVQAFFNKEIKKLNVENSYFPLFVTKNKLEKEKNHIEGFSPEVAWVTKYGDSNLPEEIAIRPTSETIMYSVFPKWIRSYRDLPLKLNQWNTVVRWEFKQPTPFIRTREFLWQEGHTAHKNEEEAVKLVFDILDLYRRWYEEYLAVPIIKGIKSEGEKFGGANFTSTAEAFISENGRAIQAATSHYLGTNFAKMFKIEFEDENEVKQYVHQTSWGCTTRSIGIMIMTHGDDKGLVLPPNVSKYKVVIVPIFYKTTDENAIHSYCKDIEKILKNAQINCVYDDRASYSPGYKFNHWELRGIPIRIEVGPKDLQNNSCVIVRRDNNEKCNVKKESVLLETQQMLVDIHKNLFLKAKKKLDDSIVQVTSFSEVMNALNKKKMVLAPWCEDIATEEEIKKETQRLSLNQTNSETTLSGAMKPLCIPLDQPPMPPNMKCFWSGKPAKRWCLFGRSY
Nature of the data set: Inhibition of Plasmodium falciparum 3D7 Prolyl-tRNA synthetase.

The species entered for a further data set is Homo sapiens. Nature of the data set: Activation of GABA receptor (unknown origin). As to conditions: filed as activator.
The target in data set [10] is Phosphatidylinositol 4,5-bisphosphate 3-kinase catalytic subunit gamma isoform (Homo sapiens, UniProt P48736). The data set is described as follows: Inhibition of PI3Kgamma (unknown origin).
Chain of Phosphatidylinositol 4,5-bisphosphate 3-kinase catalytic subunit gamma isoform (P48736 whole entry, canonical isoform): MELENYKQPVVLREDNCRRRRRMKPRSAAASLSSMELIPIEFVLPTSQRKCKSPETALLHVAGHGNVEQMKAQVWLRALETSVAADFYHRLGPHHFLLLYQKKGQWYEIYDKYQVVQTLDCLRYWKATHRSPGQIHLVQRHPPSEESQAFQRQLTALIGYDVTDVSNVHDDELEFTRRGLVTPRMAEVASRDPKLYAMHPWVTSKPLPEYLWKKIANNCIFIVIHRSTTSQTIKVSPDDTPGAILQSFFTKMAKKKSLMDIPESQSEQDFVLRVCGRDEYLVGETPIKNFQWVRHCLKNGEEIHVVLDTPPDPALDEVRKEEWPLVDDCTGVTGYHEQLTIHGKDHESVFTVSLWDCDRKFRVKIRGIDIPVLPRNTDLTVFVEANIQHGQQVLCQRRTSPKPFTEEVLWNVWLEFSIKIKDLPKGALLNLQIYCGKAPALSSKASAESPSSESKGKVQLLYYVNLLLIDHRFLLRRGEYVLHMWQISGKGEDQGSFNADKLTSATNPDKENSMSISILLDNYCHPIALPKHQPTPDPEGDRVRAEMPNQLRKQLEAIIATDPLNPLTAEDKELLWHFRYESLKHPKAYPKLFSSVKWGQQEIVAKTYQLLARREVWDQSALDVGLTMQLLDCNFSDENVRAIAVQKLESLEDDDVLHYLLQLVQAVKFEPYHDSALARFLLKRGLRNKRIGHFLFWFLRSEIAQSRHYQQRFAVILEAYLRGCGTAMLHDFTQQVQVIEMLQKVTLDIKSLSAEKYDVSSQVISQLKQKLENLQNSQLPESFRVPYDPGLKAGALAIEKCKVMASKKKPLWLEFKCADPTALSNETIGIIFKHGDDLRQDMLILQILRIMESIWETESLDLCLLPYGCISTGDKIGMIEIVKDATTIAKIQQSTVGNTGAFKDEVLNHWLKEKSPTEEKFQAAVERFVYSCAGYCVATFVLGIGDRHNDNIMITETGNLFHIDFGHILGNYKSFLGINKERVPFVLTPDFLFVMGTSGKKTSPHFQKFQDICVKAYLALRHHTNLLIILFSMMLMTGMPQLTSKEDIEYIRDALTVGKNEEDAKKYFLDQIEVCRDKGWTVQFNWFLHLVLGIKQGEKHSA
Data set [11] addresses T2, Adrenergic receptor alpha-1 (Homo sapiens, UniProt P35348+P25100+P35368).
T2 sequence (P35348 whole entry): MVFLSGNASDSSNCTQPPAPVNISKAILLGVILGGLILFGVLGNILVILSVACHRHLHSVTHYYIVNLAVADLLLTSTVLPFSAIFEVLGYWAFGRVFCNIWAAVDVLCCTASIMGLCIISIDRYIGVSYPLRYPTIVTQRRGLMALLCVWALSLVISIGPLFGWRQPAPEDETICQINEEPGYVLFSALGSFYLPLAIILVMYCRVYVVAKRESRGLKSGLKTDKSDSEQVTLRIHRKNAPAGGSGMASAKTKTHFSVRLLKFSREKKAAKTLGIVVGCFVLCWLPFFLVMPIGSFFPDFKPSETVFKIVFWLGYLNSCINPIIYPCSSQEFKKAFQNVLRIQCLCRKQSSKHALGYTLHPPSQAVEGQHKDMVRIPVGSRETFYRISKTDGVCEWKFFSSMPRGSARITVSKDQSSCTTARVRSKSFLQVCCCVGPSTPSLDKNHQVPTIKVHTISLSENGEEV
T2 sequence (P25100 whole entry): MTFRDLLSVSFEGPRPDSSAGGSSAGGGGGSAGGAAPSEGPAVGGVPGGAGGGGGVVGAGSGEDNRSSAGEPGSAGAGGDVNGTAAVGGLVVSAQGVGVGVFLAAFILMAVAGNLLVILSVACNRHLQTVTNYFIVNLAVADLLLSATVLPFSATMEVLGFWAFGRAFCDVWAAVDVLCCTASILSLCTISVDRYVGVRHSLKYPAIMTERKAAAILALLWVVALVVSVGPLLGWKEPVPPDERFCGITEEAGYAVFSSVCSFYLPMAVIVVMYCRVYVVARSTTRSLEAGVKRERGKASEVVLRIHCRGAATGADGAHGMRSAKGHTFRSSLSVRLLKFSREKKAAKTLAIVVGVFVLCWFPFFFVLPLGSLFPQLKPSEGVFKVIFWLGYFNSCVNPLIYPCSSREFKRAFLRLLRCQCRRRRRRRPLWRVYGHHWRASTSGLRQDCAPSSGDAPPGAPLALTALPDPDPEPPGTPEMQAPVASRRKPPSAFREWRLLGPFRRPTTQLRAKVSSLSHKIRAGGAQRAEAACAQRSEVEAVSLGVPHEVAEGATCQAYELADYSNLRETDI
T2 sequence (P35368 whole entry): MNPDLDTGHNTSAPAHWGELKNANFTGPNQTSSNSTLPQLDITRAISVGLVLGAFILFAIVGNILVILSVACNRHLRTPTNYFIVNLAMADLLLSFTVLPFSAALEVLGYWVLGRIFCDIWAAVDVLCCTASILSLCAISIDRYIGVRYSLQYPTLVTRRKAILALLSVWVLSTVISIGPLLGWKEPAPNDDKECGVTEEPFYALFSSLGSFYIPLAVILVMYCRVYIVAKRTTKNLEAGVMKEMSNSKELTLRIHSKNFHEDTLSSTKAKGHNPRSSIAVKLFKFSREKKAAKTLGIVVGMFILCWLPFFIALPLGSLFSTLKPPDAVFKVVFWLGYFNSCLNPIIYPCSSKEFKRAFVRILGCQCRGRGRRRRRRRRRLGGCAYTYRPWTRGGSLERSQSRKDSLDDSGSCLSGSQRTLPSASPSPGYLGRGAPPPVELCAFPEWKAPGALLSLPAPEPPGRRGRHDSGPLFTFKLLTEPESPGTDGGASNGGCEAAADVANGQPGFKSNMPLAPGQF
The data set is described as follows: Antagonist activity at Adrenergic alpha-1 receptor (unknown origin). The data set is classed as functional.

Data set [12] has as its target Vascular endothelial growth factor receptor 2 (Homo sapiens, UniProt P35968). The data set is described as follows: Inhibition of VEGFR-2 (unknown origin) using poly(Glu:Tyr)(4:1) and ATP as substrate by incubated for 1 hr by spectrophotometric based ELISA. A general note: In an ELISA, binding on a coated surface is turned into a signal by an enzyme label.
A short description of data set [13]: Cytotoxicity against human HUVEC cells assessed as cell growth inhibition incubated for 72 hrs by SRB assay. The data set is classed as toxicity, cell-based.
Data set [14] concerns the target Phosphatidylinositol 4,5-bisphosphate 3-kinase catalytic subunit alpha isoform (Homo sapiens, UniProt P42336). The data set is described as follows: Inhibition of PI3Kalpha (unknown origin).
For a further data set, the target named is Histone deacetylase. Nature of the data set: Inhibition of HDAC (unknown origin). Format: protein assay, Homo sapiens.
A further data set relates to HCT-116. The data set is described as follows: Cytotoxicity against human HCT-116 cells. The data set is classed as functional, cell-based.
Data set [15] relates to K562. Nature of the data set: Cytotoxicity against human K562 cells. The data set is classed as functional, cell-based.
Another data set has as its system HuT78. The data set is described as follows: Cytotoxicity against human HuT78 cells. Format: functional, cell-based.

Chain of Vascular endothelial growth factor receptor 2 (P35968 whole entry): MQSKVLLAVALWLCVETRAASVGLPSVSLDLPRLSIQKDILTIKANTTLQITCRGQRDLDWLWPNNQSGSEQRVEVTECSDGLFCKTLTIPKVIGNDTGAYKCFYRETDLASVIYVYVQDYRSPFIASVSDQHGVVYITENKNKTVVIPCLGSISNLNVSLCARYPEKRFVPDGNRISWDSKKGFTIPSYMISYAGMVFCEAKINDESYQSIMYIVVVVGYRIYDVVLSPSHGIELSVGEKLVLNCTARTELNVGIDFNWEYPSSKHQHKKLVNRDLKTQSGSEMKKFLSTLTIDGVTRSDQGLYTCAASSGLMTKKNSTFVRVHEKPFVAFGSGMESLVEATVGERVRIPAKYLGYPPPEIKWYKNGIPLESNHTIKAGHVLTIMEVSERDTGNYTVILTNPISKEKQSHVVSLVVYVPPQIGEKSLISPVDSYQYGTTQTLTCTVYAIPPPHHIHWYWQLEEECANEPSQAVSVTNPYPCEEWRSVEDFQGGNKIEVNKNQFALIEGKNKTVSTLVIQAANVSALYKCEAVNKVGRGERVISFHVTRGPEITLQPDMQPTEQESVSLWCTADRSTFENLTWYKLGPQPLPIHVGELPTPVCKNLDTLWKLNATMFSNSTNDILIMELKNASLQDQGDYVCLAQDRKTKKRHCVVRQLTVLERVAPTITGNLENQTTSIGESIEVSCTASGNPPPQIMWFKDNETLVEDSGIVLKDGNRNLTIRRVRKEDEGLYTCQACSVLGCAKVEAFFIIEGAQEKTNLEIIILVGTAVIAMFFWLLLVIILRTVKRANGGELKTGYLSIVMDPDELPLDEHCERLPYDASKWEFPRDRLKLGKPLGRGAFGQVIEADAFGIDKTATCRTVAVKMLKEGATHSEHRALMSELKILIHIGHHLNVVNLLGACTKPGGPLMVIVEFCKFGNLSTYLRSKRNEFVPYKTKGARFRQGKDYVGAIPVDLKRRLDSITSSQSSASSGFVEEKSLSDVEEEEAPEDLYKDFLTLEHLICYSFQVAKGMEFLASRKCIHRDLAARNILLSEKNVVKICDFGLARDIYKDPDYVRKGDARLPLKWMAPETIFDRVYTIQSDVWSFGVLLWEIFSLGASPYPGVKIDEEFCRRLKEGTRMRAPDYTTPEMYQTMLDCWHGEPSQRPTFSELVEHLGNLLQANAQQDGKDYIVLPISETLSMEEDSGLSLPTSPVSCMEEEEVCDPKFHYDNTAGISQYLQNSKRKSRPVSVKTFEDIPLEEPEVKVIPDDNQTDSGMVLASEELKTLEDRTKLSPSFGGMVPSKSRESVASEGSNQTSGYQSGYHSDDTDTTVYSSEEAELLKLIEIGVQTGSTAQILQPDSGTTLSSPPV
Chain of Phosphatidylinositol 4,5-bisphosphate 3-kinase catalytic subunit alpha isoform (P42336 whole entry, canonical isoform): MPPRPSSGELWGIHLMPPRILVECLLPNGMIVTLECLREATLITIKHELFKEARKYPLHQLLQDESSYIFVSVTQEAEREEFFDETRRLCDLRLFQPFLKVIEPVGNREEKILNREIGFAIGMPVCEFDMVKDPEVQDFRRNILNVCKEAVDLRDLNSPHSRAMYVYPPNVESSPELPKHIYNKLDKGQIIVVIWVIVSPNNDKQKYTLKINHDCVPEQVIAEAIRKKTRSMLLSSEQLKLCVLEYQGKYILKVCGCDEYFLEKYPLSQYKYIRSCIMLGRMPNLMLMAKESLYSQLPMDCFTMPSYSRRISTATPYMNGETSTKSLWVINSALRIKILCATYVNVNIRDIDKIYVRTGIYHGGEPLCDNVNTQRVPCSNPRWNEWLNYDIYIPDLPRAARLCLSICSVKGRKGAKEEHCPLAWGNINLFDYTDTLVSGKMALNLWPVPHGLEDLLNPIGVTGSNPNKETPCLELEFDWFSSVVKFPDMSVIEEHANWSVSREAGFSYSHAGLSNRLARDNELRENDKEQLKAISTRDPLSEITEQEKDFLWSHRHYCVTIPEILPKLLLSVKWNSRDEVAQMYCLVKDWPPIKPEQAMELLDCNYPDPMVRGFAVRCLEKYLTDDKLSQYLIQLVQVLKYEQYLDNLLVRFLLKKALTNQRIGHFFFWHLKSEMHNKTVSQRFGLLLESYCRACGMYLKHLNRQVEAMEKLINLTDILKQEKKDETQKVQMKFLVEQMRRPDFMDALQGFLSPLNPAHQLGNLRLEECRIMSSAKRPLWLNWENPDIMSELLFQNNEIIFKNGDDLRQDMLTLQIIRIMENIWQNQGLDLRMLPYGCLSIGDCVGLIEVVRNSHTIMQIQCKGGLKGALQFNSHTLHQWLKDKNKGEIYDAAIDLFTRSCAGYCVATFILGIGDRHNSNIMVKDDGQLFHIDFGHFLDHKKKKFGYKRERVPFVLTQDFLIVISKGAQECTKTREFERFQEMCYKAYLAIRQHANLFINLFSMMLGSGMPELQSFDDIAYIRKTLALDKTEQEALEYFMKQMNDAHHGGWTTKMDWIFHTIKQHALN

Consider `COc1ccc(N(C)c2nc(NCc3cccnc3)nc3ccccc23)cc1`, for which the IC50 turned out to be 110 nM in the data set on HepG2 [1]; 110 nM with K562 [2]; 110 nM in the data set with KB; 110 nM in the data set with HCT-8; 110 nM with MDA-MB-231; 2450 nM on Tubulin.
In data set [3], `Cc1ccc2c(-c3ccccc3)nc(=O)n(C(C)C)c2c1` [PROQUAZONE] had an IC50 of 2 nM.
`O=C1CN2Cc3c(ccc(Cl)c3Cl)N=C2N1` [ANAGRELIDE] displayed an IC50 in [4] of 26 nM.
In the case of `OC1Nc2ccccc2-c2cc(-c3ccc(Cl)cc3)nn21` (centres undefined), the IC50 at 48 h in data set [5] worked out at 3860 nM.
Consider `CN(C)CCCOc1ccc2c(NCCc3cnc(NC(=O)Nc4cccc(Cl)c4)s3)ncnc2c1`, for which the EC50 in the data set on MOLM-13 and with MV4-11 was 5 nM each time.
Consider `COc1cc2nc(N3CCN(C(=O)c4ccco4)CC3)nc(N)c2cc1OC` [PRAZOSIN], for which the IC50 in data set [6] amounted to 1900 nM.
With `COc1cc([C@@H]2c3cc4c(cc3[C@@H](O[C@@H]3O[C@@H]5CO[C@@H](C)O[C@H]5[C@H](O)[C@H]3O)[C@H]3COC(=O)[C@H]23)OCO4)cc(OC)c1O` [ETOPOSIDE], in [5], the concentration for half-maximal inhibition (IC50) at 48 h is 4320 nM.
For the compound `COc1cc(C2Sc3ccccc3C(=O)N2NC(=O)c2ccc(-n3c(-c4ccncc4)nc4ccccc4c3=O)cc2)ccc1O` (centres undefined), the IC50 in the data set on HepG2 [7] worked out at 60300 nM; in [8], 31900 nM.
For the compound `C[C@@H](n1cnc2cc(Cl)ccc2c1=O)[C@](O)(Cn1cncn1)c1ccc(F)cc1F` [ALBACONAZOLE], the IC50 in data set [9] turned out to be 1 nM.
In turn, `O=C(C[C@H]1NCCC[C@@H]1O)Cn1cnc2ccccc2c1=O` displayed an EC50 at Proline--tRNA ligase of 4 nM.
On to `Cc1ccccc1-n1c(C)nc2ccccc2c1=O`, for which, in the data set filed under Homo sapiens, the ED50 was 400 µmol/kg.
In [10], `NC(=O)c1cc(-c2ccc3ncnc(-c4cccc(C(=O)NCCN5CCOCC5)c4)c3c2)ccc1Cl` yielded an IC50 of 17 nM.
On to `CCCC(=O)N1CCCN(c2nc(N)c3cc(OC)c(OC)cc3n2)CC1` [BUNAZOSIN], for which, in [11], the IC50 is 1.22 nM.
For the compound `O=c1cc(N2CCOCC2)oc2c(-c3ccccc3)cccc12` [LY-294002], the IC50 in [8] amounted to 57300 nM.
As for `COc1cc2ncnc(-n3ncc4cc(NC(=O)Nc5ccc(C)c(Cl)c5)ccc43)c2cc1OC`, in data set [12], the IC50 turned out to be 12 nM. In [13], the IC50 at 72 h stood at 1800 nM.
Turning to `O=C(CCCCCOc1ccc2c(c1)N=C(NC(=O)c1ccccc1)N1CCN=C21)NO`, the IC50 in [14] stood at 2.98 nM; on Histone deacetylase, 50 nM; in the data set with HCT-116 it was 330 nM; in the data set with K562 [15], 95 nM; with HuT78, 62 nM.
With `COc1cccc2c1C(=O)c1c(O)c3c(c(O)c1C2=O)C[C@@](O)(C(=O)CO)C[C@@H]3O[C@H]1C[C@H](N)[C@H](O)[C@H](C)O1` [DOXORUBICIN], the IC50 in the data set with HepG2 [7] amounted to 60300 nM.
